“Also recorded” adds a separate entry of the source.
Assays:
[1] = system: hair follicles and subcutaneous fat layer; test: Histological evaluation of skin biopsies through the area of accelerated hair growth; assay type: in vivo, mice; conditions: for subcutaneous fat layer in histological sections / hair follicles in histological sections: skin biopsy through the site of injection / area of accelerated hair growth
Source text: Moreover, the surrounding skin contains telogen state follicles resting in the dermal layer, and a gradation of effect is observed as you move closer to the injection site. […] FIG. 4 is a photograph which illustrates the histological section from a mouse injection with glycyl-L-histidyl-L-lysyl-L-valyl-L-phenylalanyl-L-valine:copper(II). The area of injection is on the right side of the photograph. A decrease in hair follicle density and the subcutaneous fat layer is observed at increasing distance from the injection site.
It is known that the thickness of this fat layer is directly associated with hair growth. This increase in subcutaneous fat is shown by taking a biopsy sample at day 21 through the area and sectioning for histology slides. […] The injected area is on the right with the adjacent uninjected area on the left of the photograph.
A group of ten mice were shaved and injected once with glycyl-L-histidyl-L-lysine decyl ester:copper(II) at a dose of 500 micrograms per mouse. […]

hair growth [2] = test: Stimulation of hair growth in shaved mice by subdermal/intradermal injection; assay type: in vivo; conditions: for significant acceleration of hair growth within, following injection: injected once; for significant acceleration of hair growth within, following the injection: Example 12: 500 and 1000 micrograms per mouse; for % POS. RESPONSE: hair growth at both injection sites = positive; for hair growth (photograph of injected mice): visual, injection sites versus surrounding shaved areas
Source text: Increasing doses of glycyl-L-histidyl-L-lysyl-L-valyl-L-phenylalanyl-L-valine:copper(II) in aqueous solution was infiltrated under the skin in two locations. Mice are examined daily for signs of hair growth in the shaved area and at the injection sites. […] Hair growth at both injection sites is considered a positive response.
Mice were shaved and injected in two locations with an aqueous solution of glycyl-L-histidyl-L-lysine octyl ester:metal ion (GHL octyl:metal ion) at a ratio of peptide to metal ion of 2:1. A dose of 500 micrograms was injected per mouse.
Hair growth at both injection sites is considered a positive response.
Mice were shaved and injected in two locations with an aqueous solution of L-lysyl-L-histidyl-glycine octyl ester:copper(II) (LHG Octyl:Cu) and L-lysyl-L-histidyl-glycyl-L-L-valyl-L-phenylalanyl-L-valine:Cu (LGHVFV:Cu) at a ratio of peptide to metal ion of 2:1, and at a dose of 500 and 1000 micrograms per mouse. Hair growth at both injection sites is considered a positive response.
Mice were shaved and injected intradermally in two locations with various doses of glycyl-L-(3-methyl)-histidyl-L-lysyl-glycyl-L-tryptophan:copper(II). […] Hair growth at both injection sites is considered a positive response.
Mice were shaved and injected once with glycyl-L-histidyl-L-lysine n-octyl ester:copper(II) at a dose of 500 micrograms per mouse.
A group of ten mice were shaved and injected once with glycyl-L-histidyl-L-lysine decyl ester:copper(II) at a dose of 500 micrograms per mouse.
A group of 10 mice were shaved and injected once with glycyl-L-histidyl-L-lysine palmityl ester:copper(II) at a dose of 500 micrograms per mose.

hair growth [3] = test: Stimulation of hair growth in shaved mice by daily topical application; assay type: in vivo; conditions: treated daily; 1% (w/w) in Nonocynol-9 5% / Unibase Cream 94%; peptide to metal ion 2:1
Source text: Hair growth at the treated site is considered a positive response.

[4] = two locations, peptide to metal ion 2:1
[5] = dose 0.5 mg, two locations, peptide to metal ion 2:1
[6] = dose 1.0 mg, two locations, peptide to metal ion 2:1
[7] = Exp. 1, dose 500 mg, intradermally in two locations

Substance: glycyl-L-histidyl-L-lysine octyl ester:copper(II) [GHL Octyl:Cu(II)]
- increase in the subcutaneous fat layer in the skin near the injection site (measurements) ([1]; biopsy at day 21, 500 micrograms per mouse, injected once, versus adjacent uninjected area): approximately threefold increase
- number and size of the fat cells ([1]; biopsy at day 21, injected area versus adjacent uninjected area): obvious increase in both the number and size of the fat cells
- subcutaneous fat layer in histological sections ([1]; listed as glycyl-L-histidyl-L-lysine n-octyl ester:copper(II)): significant increase in the thickness of the subcutaneous fat layer
- POSITIVE RESPONSE (No. Positive/Total No.) (hair growth [2]; 500 micrograms per mouse, two locations, peptide to metal ion 2:1, hair growth at both sites = positive): 4/4
- significant acceleration of hair growth within, following injection (hair growth [2]; 500 micrograms per mouse): 2-3 weeks

Substance: glycyl-L-histidyl-L-lysine palmityl ester:copper(II)
- hair follicles in histological sections [1]: large number of developing hair follicles within the subcutaneous fat layer
- significant acceleration of hair growth within, following injection (hair growth [2]; 500 micrograms per mouse): 2-3 weeks

Substance: L-lysyl-L-histidyl-glycyl-L-valyl-L-phenylalanyl-L-valine:copper(II) [LHGVFV:Cu]
- significant acceleration of hair growth within, following the injection (hair growth [2]; [4]): 2-3 weeks
- POSITIVE RESPONSE (No. Positive/Total No.) (hair growth [2]; [5]): 9/10
- POSITIVE RESPONSE, percent (hair growth [2]; [5]): 90%
- POSITIVE RESPONSE (No. Positive/Total No.) (hair growth [2]; [6]): 5/5
- POSITIVE RESPONSE, percent (hair growth [2]; [6]): 100%

Substance: glycyl-L-histidyl-L-lysyl-L-valyl-L-phenylalanyl-L-valine:copper(II)
- hair follicles in histological sections [1]: anagen state follicles
- subcutaneous fat layer in histological sections [1]: thickening of the fat layer
- diameter of circle of growth (hair growth [2]; 0.5 mg injection): approximately 0.5 cm
- % POS. RESPONSE (hair growth [2]; dose 0.10 mg/inj., injected under the skin in two locations): 86%
- % POS. RESPONSE (hair growth [2]; dose 0.25 mg/inj., two locations): 89%
- % POS. RESPONSE (hair growth [2]; dose 0.50 mg/inj., two locations): 89%
- % POS. RESPONSE (hair growth [2]; dose 1.00 mg/inj., two locations): 95%
- active hair growth takes place between (hair growth [2]; following injection): 14 to 20 days
- indications of hair growth seen within (hair growth [2]; following injection): ≤ 10 days
- maximum effect seen by (hair growth [2]; following injection): ≤ 28 days
- stimulated hair growth at and around the injection site by days (hair growth [2]; increasing doses, two locations, shaved on day 1): 14 to 21 days
- hair growth at 25 days from the date of injection (photograph) (hair growth [2]; single injection site, versus control mouse injected with saline): accelerated hair growth
- positive response, % of the mice injected (hair growth [2]; summary of series of experiments of Table 1, no response with saline): 80-90%
- hair growth (photograph of injected mice) (hair growth [2]): accelerated hair growth at two injection sites
- mice showing accelerated hair growth in the area of topical application (number) (hair growth [3]): Four of the five
- mice showing accelerated hair growth in the area of topical application (percent) (hair growth [3]): 80%

Substance: L-lysyl-L-histidyl-glycine octyl ester:copper(II) [LHG-Octyl:Cu]
- significant acceleration of hair growth within, following the injection (hair growth [2]; [4]): 2-3 weeks
- POSITIVE RESPONSE (No. Positive/Total No.) (hair growth [2]; [5]): 8/8
- POSITIVE RESPONSE, percent (hair growth [2]; [5]): 100%
- POSITIVE RESPONSE (No. Positive/Total No.) (hair growth [2]; [6]): 5/5
- POSITIVE RESPONSE, percent (hair growth [2]; [6]): 100%

Substance: glycyl-L-(3-methyl)-histidyl-L-lysyl-glycyl-L-tryptophan:copper(II)
- hair growth noted within, following the injections (hair growth [2]; Example 14: various doses, intradermally in two locations): 2-3 weeks
- POSITIVE RESPONSE (No. Positive/Total No.) (hair growth [2]; [7]): 5/5
- POSITIVE RESPONSE, percent (hair growth [2]; [7]): 100%
- POSITIVE RESPONSE, percent (hair growth [2]; Exp. 2, dose 250 mg, intradermally in two locations): 100%
- POSITIVE RESPONSE (No. Positive/Total No.) (hair growth [2]; Exp. 2, intradermally in two locations): 5/5

Substance: glycyl-L-histidyl-L-lysine decyl ester:copper(II)
- hair shaft units within the subcutaneous fat layer ([1]; biopsy of area of accelerated growth, 500 micrograms per mouse, injected once): marked proliferation of hair shaft units; also recorded: marked proliferation of hair shafts
- hair follicles in histological sections [1]: increased hair growth, fat cell layer and increased hair follicle density
- significant acceleration of hair growth within, following injection (hair growth [2]; 500 micrograms per mouse): 2-3 weeks
- hair growth (photograph of injected mice) (hair growth [2]): stimulated hair growth
